The values that follow are results of earlier work, collected in patent US20210315250A1, “COMBINATION BROAD-SPECTRUM ANTIVIRAL NATURAL EXTRACT SUPPLEMENTS” (priority 2020, published 2021).

Some targets named below: viral S protein (Severe acute respiratory syndrome coronavirus 2, UniProt P0DTC2); ACE2 receptor (Homo sapiens, UniProt Q9BYF1); SARS-CoV 3CL (Severe acute respiratory syndrome coronavirus, UniProt P0C6X7).
The subject of data set [1] is docking site for SARS-CoV-2.

Chain of ACE2 receptor (Q9BYF1 18-805): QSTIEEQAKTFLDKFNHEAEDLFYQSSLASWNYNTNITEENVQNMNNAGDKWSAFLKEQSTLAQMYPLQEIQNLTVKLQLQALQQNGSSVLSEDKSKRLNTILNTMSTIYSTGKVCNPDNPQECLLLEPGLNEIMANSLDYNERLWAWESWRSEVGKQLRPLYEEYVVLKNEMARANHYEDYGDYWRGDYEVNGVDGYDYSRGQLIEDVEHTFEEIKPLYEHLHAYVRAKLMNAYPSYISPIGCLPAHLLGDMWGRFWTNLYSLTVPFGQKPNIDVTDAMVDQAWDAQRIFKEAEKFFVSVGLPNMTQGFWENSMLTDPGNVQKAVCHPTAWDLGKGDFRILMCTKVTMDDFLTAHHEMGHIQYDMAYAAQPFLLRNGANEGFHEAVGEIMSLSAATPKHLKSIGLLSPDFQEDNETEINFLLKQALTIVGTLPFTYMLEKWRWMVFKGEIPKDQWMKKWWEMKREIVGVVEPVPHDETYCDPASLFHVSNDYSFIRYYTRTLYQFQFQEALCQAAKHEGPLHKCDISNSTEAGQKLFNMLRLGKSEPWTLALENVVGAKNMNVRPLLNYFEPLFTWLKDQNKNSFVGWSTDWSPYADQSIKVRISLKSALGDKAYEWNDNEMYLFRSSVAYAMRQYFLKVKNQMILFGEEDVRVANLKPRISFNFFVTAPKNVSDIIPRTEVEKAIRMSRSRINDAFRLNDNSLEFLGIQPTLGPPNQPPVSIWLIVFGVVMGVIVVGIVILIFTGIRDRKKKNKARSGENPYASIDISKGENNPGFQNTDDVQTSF

Take `COc1cc(/C=C/C(=O)CC(=O)/C=C/c2ccc(O)c(OC)c2)ccc1O` [Curcumin]: the “interaction with viral S protein docking site” value on viral S protein is “interact”. The “interaction with ACE2 receptor docking site” value at ACE2 receptor was “interact”.

Regarding `O=c1cc(-c2ccc(O)c(O)c2)oc2cc(O)cc(O)c12` [Luteolin], at SARS-CoV 3CL, the “inhibition of the docking site for SARS-CoV 3CL” value is “inhibit”.

Take `CC(=O)C=O` [Methylglyoxal]: the “inhibition of viruses, in particular influenza” value with influenza is “inhibit”.

On to `O=c1c(O)c(-c2cc(O)c(O)c(O)c2)oc2cc(O)cc(O)c12` [Myricetin], for which the “inhibition of the docking site for SARS-CoV-2” value in data set [1] is “inhibit”.

Take `O=C1OC[C@H](Cc2ccc3c(c2)OCO3)/C1=C\c1ccc2c(c1)OCO2` [Savinin]: the “inhibition of the docking site for SARS-CoV 3CL” value on SARS-CoV 3CL was “inhibit”.

In the case of `C/C=C/c1ccc(OC)cc1` [Trans-anethole], the “inhibition of HSV-1” value in the data set on HSV-1 is “inhibit”.

As to `O=c1c(O)c(-c2ccc(O)cc2)oc2c(O)c(O)cc(O)c12` [herbacetin], the “binding to SARS-CoV 3CL” value at SARS-CoV 3CL is “bind”.

In the case of `CCCCCCCCCCCCCC(=O)O` [myristic acid], the “inhibition of HIV” value in the data set with HIV is “inhibit”. Further, in the data set on SVS, the “inhibition of SVS” value is reported as “inhibit”.

On to `COc1ccc(-c2cc(=O)c3c(O)c(OC)c(O[C@@H]4O[C@H](CO[C@@H]5O[C@@H](C)[C@H](O)[C@@H](O)[C@H]5O)[C@@H](O)[C@H](O)[C@H]4O)cc3o2)cc1` [pectolinarin], for which, on SARS-CoV 3CL, the “binding to SARS-CoV 3CL” value was “bind”.

For the compound `C[C@@H]1O[C@@H](O[C@H]2[C@H](Oc3cc(O)c4c(=O)cc(-c5ccc(O)cc5)oc4c3)O[C@H](CO)[C@@H](O)[C@@H]2O)[C@H](O)[C@H](O)[C@H]1O` [rhoifolin], at SARS-CoV 3CL, the “binding to SARS-CoV 3CL” value was “bind”.

Regarding caryophyllene, the “inhibition of HSV-1” value in the data set with HSV-1 is recorded as “inhibit”.
